Measurements: US7776862B2, “Pyridyl and phenyl substituted piperazine-piperidines with CXCR3 antagonist activity” (Schering Corporation, priority 2005, dated 2010)

Each molecule was assayed against T1, human CXCR3 (N-delta 4) (Homo sapiens, UniProt P49682) (assay: Human CXCR3 (N-delta 4) scintillation proximity assay (SPA), [125I] IP-10 binding). Conditions: IC50 rating; Ba/F3-hCXCR3 (N-delta 4) membranes, 25 pM [125I] IP-10.
T1 construct: CD8 leader; Flag tag; expressed in transfected cells; membranes used
T1 sequence (P49682 5-368 limits assumed): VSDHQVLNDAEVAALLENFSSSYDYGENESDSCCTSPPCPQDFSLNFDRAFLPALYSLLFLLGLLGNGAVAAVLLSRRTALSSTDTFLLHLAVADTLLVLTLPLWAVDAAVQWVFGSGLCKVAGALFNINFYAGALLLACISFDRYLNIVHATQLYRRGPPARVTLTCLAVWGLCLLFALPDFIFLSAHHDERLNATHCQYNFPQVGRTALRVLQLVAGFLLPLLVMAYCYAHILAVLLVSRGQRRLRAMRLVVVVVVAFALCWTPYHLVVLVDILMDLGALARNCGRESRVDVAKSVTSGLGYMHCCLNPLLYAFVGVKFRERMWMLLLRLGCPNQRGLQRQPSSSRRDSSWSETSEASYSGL
Text: The inventive compounds can readily be evaluated to determine activity at the CXCR3 receptors by known methods, such as, for example, development of a human CXCR3 (N-delta 4) Binding Assay.
Cloning and expression of human CXCR3 (N-delta 4):
The DNA encoding human CXCR3 was cloned by PCR using human genomic DNA (Promega, Madison, Wis.) as a template. The PCR primers were designed based on the published sequence of human orphan receptor GPR9 (1) with incorporated restriction sites, a Kozak consensus sequence, CD8 leader and Flag tag. The PCR product was subcloned into the mammalian expression vector pME18Sneo, a derivative of the SR-alpha expression vector (designated as pME18Sneo-hCXCR3 (N-delta 4).
IL-3-dependent mouse pro-B cells Ba/F3 were transfected by electroporation in 0.4 ml Dulbecco's PBS containing 4×10^6 cells with 20 μg of pME18Sneo-hCXCR3 (N-delta 4) plasmid DNA. Cells were pulsed at 400 Volts, 100 OHMs, 960 μFd. The transfected cells were under selection with 1 mg/ml G418 (Life Technologies, Gaithersburg, Md.). […] IP-10 (NEN Life Science Products, Boston, Mass.).
Preparation of Ba/F3-hCXCR3 (N-delta 4) membranes:
Ba/F3 cells expressing human CXCR3 (N-delta 4) were pelleted and resuspended in the lysis buffer containing 10 mM HEPES, pH 7.5 and Complete® protease inhibitors (1 tablet per 100 ml) (Boehringer Mannheim, Indianapolis, Ind.) at a cell density of 20×10^6 cells per ml. […] Large cellular debris was removed by centrifugation at 1,000×g. Cell membrane in the supernatant was sedimented at 100,000×g. The membrane was resuspended in the lysis buffer supplemented with 10% sucrose and stored at −80° C. Total protein concentration of the membrane was determined by BCA method from Pierce (Rockford, Ill.).
Human CXCR3 (N-delta 4) scintillation proximity assay (SPA):
The beads were spun down, washed once, resuspended in the binding buffer and transferred to a 96-well Isoplate (Wallac, Gaithersburg, Md.). […] IP-10 with tested compounds in a series of titration were added to start the reaction.

IC50, > 100 nM:
O=C(NCc1cccc(F)c1)c1cnc(N2CCN(C3CCN(Cc4ccc(Cl)cc4Cl)CC3)CC2)c(Cl)c1 [compound 1], N#Cc1ccc(C(=O)N2CCC(N3CCN(c4ncc(C(=O)NCc5ccc(C(F)(F)F)cc5)cc4Cl)CC3)CC2)cc1 [compound 2], O=C(NC1CCc2ccccc21)c1cnc(N2CCN(C3CCN(Cc4ccc(Cl)cc4)CC3)CC2)c(Br)c1 (stereo not drawn) [compound 3], O=C(NCc1ccc(F)cc1)c1cnc(N2CCN(C3CCN(Cc4ccc(Br)cc4F)CC3)CC2)c(Cl)c1 [compound 4], O=C(NCc1ccccc1)c1cnc(N2CCN(C3CCN(Cc4ccc(F)cc4)CC3)CC2)c(Cl)c1 [compound 5], N#Cc1ccc(CN2CCC(N3CCN(c4ncc(C(=O)NCc5ccccc5F)cc4Cl)CC3)CC2)cc1 [compound 6], O=C(NCc1ccc(F)cc1)c1cnc(N2CCN(C3CCN(Cc4ccc(Cl)cc4Cl)CC3)CC2)c(Cl)c1 [compound 7], O=C(NCc1cccc(F)c1)c1cnc(N2CCN(C3CCN(Cc4ccc(F)cc4F)CC3)CC2)c(Cl)c1 [compound 8], CC1(C)C2CCC(CNC(=O)c3cnc(N4CCN(C5CCN(Cc6ccc(Cl)cc6)CC5)CC4)c(Br)c3)C1C2 (stereo not drawn) [compound 9], O=C(NCc1ccc(F)cc1F)c1cnc(N2CCN(C3CCN(Cc4ccc(Cl)cc4Cl)CC3)CC2)c(Cl)c1 [compound 10], O=C(NCc1ccc(Br)cc1)c1cnc(N2CCN(C3CCN(Cc4ccc(Cl)cc4Cl)CC3)CC2)c(Cl)c1 [compound 11], O=C(NCc1cc(Cl)cc(Cl)c1)c1cnc(N2CCN(C3CCN(Cc4ccc(F)cc4F)CC3)CC2)c(Cl)c1 [compound 12], O=C(NCc1ccc(Cl)cc1)c1cnc(N2CCN(C3CCN(Cc4ccc(Cl)cc4Cl)CC3)CC2)c(Cl)c1 [compound 13], O=C(NCc1cccc(F)c1)c1cnc(N2CCN(C3CCN(Cc4ccc(Br)cc4F)CC3)CC2)c(Cl)c1 [compound 14], N#Cc1ccc(C(=O)N2CCC(N3CCN(c4ncc(C(=O)NCCOc5ccccc5)cc4Cl)CC3)CC2)cc1 [compound 15], O=C(NCCOc1ccccc1)c1cnc(N2CCN(C3CCN(Cc4ccc(F)cc4F)CC3)CC2)c(Cl)c1 [compound 16], O=C(NCc1ccc(Cl)c(Cl)c1)c1ccc(N2CCN(C3CCN(Cc4ccc(Cl)cc4)CC3)CC2)c(Cl)c1 [compound 17], O=C(NC1CCCC1)c1cnc(N2CCN(C3CCN(Cc4ccc([N+](=O)[O-])cc4)CC3)CC2)c(Cl)c1 [compound 18], N#Cc1ccc(C(=O)N2CCC(N3CCN(c4ncc(C(=O)NCc5ccc(F)cc5)cc4Cl)CC3)CC2)cc1 [compound 19], O=C(NCc1ccc(F)cc1F)c1cnc(N2CCN(C3CCN(Cc4ccc(Br)cc4F)CC3)CC2)c(Cl)c1 [compound 20], N#Cc1ccc(CN2CCC(N3CCN(c4ncc(C(=O)NCc5ccccc5)cc4Cl)CC3)CC2)cc1 [compound 21], O=C(NC1CCCC1)c1cnc(N2CCN(C3CCN(Cc4ccc(Cl)c(F)c4)CC3)CC2)c(Cl)c1 [compound 22], O=C(NCCOc1ccccc1)c1cnc(N2CCN(C3CCN(Cc4ccc(Br)cc4F)CC3)CC2)c(Cl)c1 [compound 23], O=C(NCc1cccc(Cl)c1)c1cnc(N2CCN(C3CCN(Cc4ccc(Cl)c(F)c4)CC3)CC2)c(Cl)c1 [compound 24], O=C(NCc1ccc(F)c(F)c1)c1cnc(N2CCN(C3CCN(Cc4ccc(Cl)cc4Cl)CC3)CC2)c(Cl)c1 [compound 25], O=C(NCc1ccc(Cl)cc1Cl)c1cnc(N2CCN(C3CCN(Cc4ccc(Br)cc4F)CC3)CC2)c(Cl)c1 [compound 26], O=C(NCc1ccc(Cl)cc1F)c1cnc(N2CCN(C3CCN(Cc4ccc(Br)cc4F)CC3)CC2)c(Cl)c1 [compound 27], O=C(NCc1cccc(Cl)c1)c1cnc(N2CCN(C3CCN(Cc4ccc(F)cc4F)CC3)CC2)c(Cl)c1 [compound 28], O=C(NCc1cccc(F)c1)c1cnc(N2CCN(C3CCN(Cc4ccc(F)cc4)CC3)CC2)c(Cl)c1 [compound 29], COc1ccc(CN2CCC(N3CCN(c4ncc(C(=O)NCc5cccc(F)c5)cc4Cl)CC3)CC2)cc1 [compound 30], O=C(NCc1ccc(C(F)(F)F)cc1)c1cnc(N2CCN(C3CCN(Cc4ccc(Br)cc4)CC3)CC2)c(Cl)c1 [compound 31], CC(c1ccc(C#N)cc1)N1CCC(N2CCN(c3ncc(C(=O)NCc4ccc(Cl)c(Cl)c4)cc3Cl)CC2)CC1 (stereo not drawn) [compound 32], O=C(NCc1ccc(F)c(Cl)c1)c1cnc(N2CCN(C3CCN(Cc4ccc(Br)cc4F)CC3)CC2)c(Cl)c1 [compound 33], O=C(NCc1ccc(F)cc1)c1cnc(N2CCN(C3CCN(Cc4ccc(F)cc4F)CC3)CC2)c(Cl)c1 [compound 34], O=C(NCCOc1ccccc1)c1cnc(N2CCN(C3CCN(Cc4ccc(F)c(F)c4)CC3)CC2)c(Cl)c1 [compound 35], O=C(NCc1ccc(Br)cc1)c1cnc(N2CCN(C3CCN(Cc4ccc(Br)cc4F)CC3)CC2)c(Cl)c1 [compound 36], O=C(NC1CCCC1)c1cnc(N2CCN(C3CCN(Cc4ccc(Br)cc4)CC3)CC2)c(Cl)c1 [compound 37], O=C(NCCOc1ccccc1)c1cnc(N2CCN(C3CCN(Cc4ccc(Cl)cc4Cl)CC3)CC2)c(Cl)c1 [compound 38], O=C(NCc1ccccc1)c1cnc(N2CCN(C3CCN(Cc4ccc(Br)cc4)CC3)CC2)c(Cl)c1 [compound 39], N#Cc1ccc(CN2CCC(N3CCN(c4ncc(C(=O)NCc5cc(Cl)cc(Cl)c5)cc4Cl)CC3)CC2)cc1 [compound 40], O=C(NCc1ccc(F)cc1F)c1cnc(N2CCN(C3CCN(Cc4ccc(F)cc4F)CC3)CC2)c(Cl)c1 [compound 41], COc1ccc(CN2CCC(N3CCN(c4ncc(C(=O)NCc5ccc(C(F)(F)F)cc5)cc4Cl)CC3)CC2)cc1 [compound 42], O=C(NCc1cccc(Cl)c1)c1cnc(N2CCN(C3CCN(Cc4ccc(Br)cc4)CC3)CC2)c(Cl)c1 [compound 43], COc1ccc(CN2CCC(N3CCN(c4ncc(C(=O)NCc5cc(Cl)cc(Cl)c5)cc4Cl)CC3)CC2)cc1 [compound 44], CC(c1ccc(Cl)cc1)N1CCC(N2CCN(c3ncc(C(=O)NCc4ccc(Cl)c(Cl)c4)cc3Cl)CC2)CC1 (stereo not drawn) [compound 45], CC(c1ccc(Cl)cc1)N1CCC(N2CCN(c3ncc(C(=O)NCc4ccc(F)c(F)c4)cc3Cl)CC2)CC1 (stereo not drawn) [compound 46], N#Cc1ccc(CN2CCC(N3CCN(c4ncc(C(=O)NCc5cccc(Cl)c5)cc4Cl)CC3)CC2)cc1 [compound 47], O=C(NCc1ccc(Cl)cc1)c1cnc(N2CCN(C3CCN(Cc4ccc(Br)cc4F)CC3)CC2)c(Cl)c1 [compound 48], O=C(NCCOc1ccccc1)c1cnc(N2CCN(C3CCN(Cc4ccc(Cl)c(Cl)c4)CC3)CC2)c(Cl)c1 [compound 49], COc1ccc(CN2CCC(N3CCN(c4ncc(C(=O)NCc5ccc(F)cc5)cc4Cl)CC3)CC2)cc1 [compound 50], N#Cc1ccc(C(=O)N2CCC(N3CCN(c4ncc(C(=O)NCc5ccc(F)c(F)c5)cc4Cl)CC3)CC2)cc1 [compound 51]
